The record followed here is patent US20260356819A1, “OXOISOINDOLINYL-SUBSTITUTED […] DERIVATIVE AND USE THEREOF” (GLUETACS THERAPEUTICS (SHANGHAI) CO., LTD., priority 2023, published 2026).

Type in all cases: cell-based
Settings in all cases: compounds at 50 nM and 500 nM

The target of assay [1] is T1, WEE1 (Homo sapiens, UniProt P30291+Q96SW2).
T1 construct: The supernatant was aspirated as the extracted total cell protein; endogenous in cells; host or cells: human peripheral blood mononuclear cells (hPBMCs)
Briefly: Western blot degradation of WEE1 in hPBMCs (24 h). The method in brief:
(§1)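 Read-out is Western blot band grayscale, divided by internal control band and normalised to give percent target protein remaining; degradation rate is 1 minus that value. Cells were human PBMCs exposed to compound at 50 nM and 500 nM for 24 hours.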
Background: A western blot detects proteins with antibodies after separation by electrophoresis.

Assay [2] addresses T2, IKZF1 (Homo sapiens, UniProt Q13422+Q96SW2).
T2 construct: The supernatant was aspirated as the extracted total cell protein; endogenous in cells; host or cells: human peripheral blood mononuclear cells (hPBMCs)
Briefly: Western blot degradation of IKZF1 in hPBMCs (24 h). The method in brief:
as §1

Assay [3] concerns the target T3, IKZF2 (Homo sapiens, UniProt Q96SW2+Q9UKS7).
T3 construct: The supernatant was aspirated as the extracted total cell protein; endogenous in cells; host or cells: human peripheral blood mononuclear cells (hPBMCs)
Briefly: Western blot degradation of IKZF2 in hPBMCs (24 h). The gist of the method: as §1

In assay [4] the target is T4, IKZF3 (Homo sapiens, UniProt Q96SW2+Q9UKT9).
T4 construct: The supernatant was aspirated as the extracted total cell protein; endogenous in cells; host or cells: human peripheral blood mononuclear cells (hPBMCs)
T4 sequence (Q9UKT9 whole entry): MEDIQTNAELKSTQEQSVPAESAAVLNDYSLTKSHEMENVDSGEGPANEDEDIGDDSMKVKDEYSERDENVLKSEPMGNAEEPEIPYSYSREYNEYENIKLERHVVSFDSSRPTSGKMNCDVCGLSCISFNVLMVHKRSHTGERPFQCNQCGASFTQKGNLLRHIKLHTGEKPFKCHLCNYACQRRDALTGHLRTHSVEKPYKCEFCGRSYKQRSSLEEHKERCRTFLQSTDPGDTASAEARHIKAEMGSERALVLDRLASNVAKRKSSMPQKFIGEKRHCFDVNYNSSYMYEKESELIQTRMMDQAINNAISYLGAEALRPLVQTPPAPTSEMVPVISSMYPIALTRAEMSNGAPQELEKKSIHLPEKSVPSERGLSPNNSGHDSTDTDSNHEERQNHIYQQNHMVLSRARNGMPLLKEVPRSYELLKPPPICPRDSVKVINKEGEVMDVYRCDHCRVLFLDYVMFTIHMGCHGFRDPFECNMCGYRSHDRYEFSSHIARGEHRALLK
T4 sequence (Q96SW2 whole entry): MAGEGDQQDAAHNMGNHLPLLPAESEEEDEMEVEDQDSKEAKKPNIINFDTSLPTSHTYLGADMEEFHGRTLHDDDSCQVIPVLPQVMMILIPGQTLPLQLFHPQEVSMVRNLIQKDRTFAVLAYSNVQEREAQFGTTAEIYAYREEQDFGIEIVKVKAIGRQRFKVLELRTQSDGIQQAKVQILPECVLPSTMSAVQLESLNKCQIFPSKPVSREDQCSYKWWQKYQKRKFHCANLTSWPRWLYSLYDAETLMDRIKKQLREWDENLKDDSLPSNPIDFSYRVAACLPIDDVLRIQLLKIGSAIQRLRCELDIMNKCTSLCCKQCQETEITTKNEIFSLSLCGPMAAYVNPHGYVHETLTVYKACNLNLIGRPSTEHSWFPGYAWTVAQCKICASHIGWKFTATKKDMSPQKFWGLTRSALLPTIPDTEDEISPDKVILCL
T4 sequence (Q16531 whole entry partner): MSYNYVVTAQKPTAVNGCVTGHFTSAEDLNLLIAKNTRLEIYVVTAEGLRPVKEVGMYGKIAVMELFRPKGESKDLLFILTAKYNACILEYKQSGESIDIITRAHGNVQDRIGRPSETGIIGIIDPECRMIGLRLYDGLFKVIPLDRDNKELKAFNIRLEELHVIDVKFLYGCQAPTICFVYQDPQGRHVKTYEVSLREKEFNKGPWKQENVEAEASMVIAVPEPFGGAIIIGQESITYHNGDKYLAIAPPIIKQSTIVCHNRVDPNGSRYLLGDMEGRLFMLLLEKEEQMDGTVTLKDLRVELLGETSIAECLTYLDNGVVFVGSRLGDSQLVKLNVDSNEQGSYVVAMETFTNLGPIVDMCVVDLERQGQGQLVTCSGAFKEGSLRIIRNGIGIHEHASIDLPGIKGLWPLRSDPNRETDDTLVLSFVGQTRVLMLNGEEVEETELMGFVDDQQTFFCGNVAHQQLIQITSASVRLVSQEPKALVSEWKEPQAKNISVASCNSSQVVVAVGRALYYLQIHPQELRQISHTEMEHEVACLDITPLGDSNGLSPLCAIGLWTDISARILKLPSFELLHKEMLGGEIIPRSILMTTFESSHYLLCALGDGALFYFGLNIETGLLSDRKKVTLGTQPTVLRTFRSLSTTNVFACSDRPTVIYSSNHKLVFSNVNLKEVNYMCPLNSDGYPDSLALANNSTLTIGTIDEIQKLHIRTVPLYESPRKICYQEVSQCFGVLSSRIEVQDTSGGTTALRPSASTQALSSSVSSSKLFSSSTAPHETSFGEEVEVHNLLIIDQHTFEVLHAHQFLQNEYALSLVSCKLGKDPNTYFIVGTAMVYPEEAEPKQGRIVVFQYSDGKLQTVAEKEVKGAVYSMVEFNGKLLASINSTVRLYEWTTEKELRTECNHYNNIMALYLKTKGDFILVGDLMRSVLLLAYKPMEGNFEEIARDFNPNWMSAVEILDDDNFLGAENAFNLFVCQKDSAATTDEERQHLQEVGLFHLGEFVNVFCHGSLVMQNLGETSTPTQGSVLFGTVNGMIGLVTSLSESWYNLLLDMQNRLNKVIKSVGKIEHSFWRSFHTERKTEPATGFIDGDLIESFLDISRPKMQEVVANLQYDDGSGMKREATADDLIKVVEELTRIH
Description: Western blot degradation of IKZF3 in hPBMCs (24 h). The method in brief: as §1

Assay [5] concerns the target T5, CK1α (Homo sapiens, UniProt P48729+Q96SW2).
T5 construct: The supernatant was aspirated as the extracted total cell protein; endogenous in cells; host or cells: human peripheral blood mononuclear cells (hPBMCs)
Briefly: Western blot degradation of CK1α in hPBMCs (24 h). The method in brief:
as §1

Assay [6] concerns the target T6, GSPT1 (Homo sapiens, UniProt P15170+Q96SW2).
T6 construct: The supernatant was aspirated as the extracted total cell protein; endogenous in cells; host or cells: human peripheral blood mononuclear cells (hPBMCs)
Description: Western blot degradation of GSPT1 in hPBMCs (24 h). The gist of the method: as §1

Each structure is given as a SMILES string.

T6 sequence (P15170 whole entry): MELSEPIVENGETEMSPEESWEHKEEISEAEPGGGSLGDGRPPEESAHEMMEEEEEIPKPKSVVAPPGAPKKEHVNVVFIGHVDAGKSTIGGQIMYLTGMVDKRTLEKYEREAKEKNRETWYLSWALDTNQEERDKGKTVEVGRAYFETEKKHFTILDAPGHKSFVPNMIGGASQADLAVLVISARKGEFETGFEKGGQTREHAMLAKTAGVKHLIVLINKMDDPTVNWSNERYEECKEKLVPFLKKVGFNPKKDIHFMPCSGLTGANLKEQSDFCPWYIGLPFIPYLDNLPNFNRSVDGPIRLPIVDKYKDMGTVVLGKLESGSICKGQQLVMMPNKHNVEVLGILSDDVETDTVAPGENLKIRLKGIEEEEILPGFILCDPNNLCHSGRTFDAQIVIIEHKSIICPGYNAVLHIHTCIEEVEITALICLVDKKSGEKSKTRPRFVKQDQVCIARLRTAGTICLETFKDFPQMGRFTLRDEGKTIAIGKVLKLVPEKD
T6 sequence (Q96SW2 whole entry): as the sequence (Q96SW2 whole entry) above
T6 sequence (Q16531 whole entry partner): as the sequence (Q16531 whole entry partner) above
T2 sequence (Q13422 whole entry): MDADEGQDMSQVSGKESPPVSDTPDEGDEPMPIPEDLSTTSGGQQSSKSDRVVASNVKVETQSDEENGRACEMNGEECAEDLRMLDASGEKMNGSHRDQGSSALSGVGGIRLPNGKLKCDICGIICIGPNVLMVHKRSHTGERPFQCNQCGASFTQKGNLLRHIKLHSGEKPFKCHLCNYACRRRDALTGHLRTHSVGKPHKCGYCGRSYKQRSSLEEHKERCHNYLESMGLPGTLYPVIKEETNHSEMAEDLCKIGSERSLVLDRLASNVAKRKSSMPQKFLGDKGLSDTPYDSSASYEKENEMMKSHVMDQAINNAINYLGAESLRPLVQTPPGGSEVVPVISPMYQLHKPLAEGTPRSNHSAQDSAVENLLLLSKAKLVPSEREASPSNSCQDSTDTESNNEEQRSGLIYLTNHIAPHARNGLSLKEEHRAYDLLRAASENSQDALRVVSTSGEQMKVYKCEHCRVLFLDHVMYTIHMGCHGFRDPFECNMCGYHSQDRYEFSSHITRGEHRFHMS
T2 sequence (Q96SW2 whole entry): as the sequence (Q96SW2 whole entry) above
T2 sequence (Q16531 whole entry partner): as the sequence (Q16531 whole entry partner) above
T5 sequence (P48729 whole entry): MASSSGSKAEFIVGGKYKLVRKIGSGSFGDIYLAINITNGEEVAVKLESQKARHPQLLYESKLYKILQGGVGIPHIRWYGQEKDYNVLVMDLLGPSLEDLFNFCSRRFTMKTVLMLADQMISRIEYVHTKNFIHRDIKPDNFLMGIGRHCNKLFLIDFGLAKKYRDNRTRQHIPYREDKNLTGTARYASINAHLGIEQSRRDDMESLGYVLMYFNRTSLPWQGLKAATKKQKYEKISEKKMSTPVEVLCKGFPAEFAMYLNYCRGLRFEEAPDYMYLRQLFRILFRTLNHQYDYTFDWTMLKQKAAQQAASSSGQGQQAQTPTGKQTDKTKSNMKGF
T5 sequence (Q96SW2 whole entry): as the sequence (Q96SW2 whole entry) above
T5 sequence (Q16531 whole entry partner): as the sequence (Q16531 whole entry partner) above
T3 sequence (Q9UKS7 whole entry): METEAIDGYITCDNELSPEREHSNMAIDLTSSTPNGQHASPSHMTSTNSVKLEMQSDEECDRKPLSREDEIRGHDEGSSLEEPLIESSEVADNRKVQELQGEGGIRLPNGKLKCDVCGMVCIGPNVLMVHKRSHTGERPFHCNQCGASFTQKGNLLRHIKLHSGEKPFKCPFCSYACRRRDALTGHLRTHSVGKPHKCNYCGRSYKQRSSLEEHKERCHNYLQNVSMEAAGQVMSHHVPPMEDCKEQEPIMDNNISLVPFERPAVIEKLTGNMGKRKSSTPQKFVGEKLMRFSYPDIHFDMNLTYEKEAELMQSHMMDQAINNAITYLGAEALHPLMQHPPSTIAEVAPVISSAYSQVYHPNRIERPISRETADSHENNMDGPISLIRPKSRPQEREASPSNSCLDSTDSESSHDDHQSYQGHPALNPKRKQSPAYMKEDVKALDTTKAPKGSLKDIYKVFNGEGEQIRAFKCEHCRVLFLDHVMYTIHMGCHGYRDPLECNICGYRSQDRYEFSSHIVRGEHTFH
T3 sequence (Q96SW2 whole entry): as the sequence (Q96SW2 whole entry) above
T3 sequence (Q16531 whole entry partner): as the sequence (Q16531 whole entry partner) above

For `CC1(C)CCC(CN2CC3CC(C2)N3Cc2ccc3c(c2)C(=O)N(N2CCC(=O)NC2=O)C3=O)=C(c2ccc(Cl)cc2)C1` [GT-06457, 5-((3-((4′-chloro-5,5-dimethyl-3,4,5,6-tetrahydro-[1,1′-biphenyl]-2-yl)methyl)-3,6-diazabicyclo[3.1.1]heptan-6-yl)methyl)-2-(2,4-dioxotetrahydropyrimidin-1(2H)-yl)isoindoline-1,3-dione], the “WEE1 substrate protein remaining %” value in assay [1] was “A (0% ≤ substrate protein remaining % ≤80%)”. In assay [2], the “IKZF1 substrate protein remaining %” value is given as “A (0% ≤ substrate protein remaining % ≤80%)”. Also, the “IKZF2 substrate protein remaining %” value in assay [3] is “A (0% ≤ substrate protein remaining % ≤80%)”. Also, in assay [4], the “IKZF3 substrate protein remaining %” value is “A (0% ≤ substrate protein remaining % ≤80%)”. In addition, the “CK1α substrate protein remaining %” value in assay [5] is “A (0% ≤ substrate protein remaining % ≤80%)”. For the same compound, the “GSPT1 substrate protein remaining %” value in assay [6] was “A (0% ≤ substrate protein remaining % ≤80%)”.
For `O=C1CCN(N2C(=O)c3ccc(CN4CC=C(c5cncc(Cl)c5)CC4)cc3C2=O)C(=O)N1` [GT-07491, 5-((5-chloro-3′,6′-dihydro-[3,4′-bipyridin]-1′ (2′H)-yl)methyl)-2-(2,4-dioxotetrahydropyrimidin-1(2H)-yl)isoindoline-1,3-dione], the “WEE1 substrate protein remaining %” value in assay [1] is reported as “A (0% ≤ substrate protein remaining % ≤80%)”. Besides, in assay [2], the “IKZF1 substrate protein remaining %” value was “B (80%< substrate protein remaining % ≤100%)”. Moreover, in assay [3], the “IKZF2 substrate protein remaining %” value is “B (80%< substrate protein remaining % ≤100%)”. The “IKZF3 substrate protein remaining %” value in assay [4] was “B (80%< substrate protein remaining % ≤100%)”. Further, the “CK1α substrate protein remaining %” value in assay [5] is recorded as “B (80%< substrate protein remaining % ≤100%)”. In assay [6], the “GSPT1 substrate protein remaining %” value is recorded as “A (0% ≤ substrate protein remaining % ≤80%)”.
With `O=C1CCN(N2Cc3cc(CN4CCN(c5cc(F)cc(F)c5)CC4)ccc3C2=O)C(=O)N1` [GT-06782, 1-(5-((4-(3,5-difluorophenyl)piperazin-1-yl)methyl)-1-oxoisoindolin-2-yl)dihydropyrimidine-2,4(1H,3H)-dione], the “WEE1 substrate protein remaining %” value in assay [1] is “B (80%< substrate protein remaining % ≤100%)”. For the same compound, in assay [2], the “IKZF1 substrate protein remaining %” value is “B (80%< substrate protein remaining % ≤100%)”. Further, the “IKZF2 substrate protein remaining %” value in assay [3] is on record as “B (80%< substrate protein remaining % ≤100%)”. The “IKZF3 substrate protein remaining %” value in assay [4] was “B (80%< substrate protein remaining % ≤100%)”. The “CK1α substrate protein remaining %” value in assay [5] is recorded as “A (0% ≤ substrate protein remaining % ≤80%)”. The “GSPT1 substrate protein remaining %” value in assay [6] was “A (0% ≤ substrate protein remaining % ≤80%)”.
As to `O=C1CCN(N2C(=O)c3ccc(CN4CCN(c5ccc(Cl)cn5)CC4)cc3C2=O)C(=O)N1` [GT-05350, 5-((4-(5-chloropyridin-2-yl)piperazin-1-yl)methyl)-2-(2,4-dioxotetrahydropyrimidin-1(2H)-yl)isoindoline-1,3-dione], the “WEE1 substrate protein remaining %” value in assay [1] was “B (80%< substrate protein remaining % ≤100%)”. The “IKZF1 substrate protein remaining %” value in assay [2] is “B (80%< substrate protein remaining % ≤100%)”. Further, the “IKZF2 substrate protein remaining %” value in assay [3] is listed as “B (80%< substrate protein remaining % ≤100%)”. Also, in assay [4], the “IKZF3 substrate protein remaining %” value is reported as “B (80%< substrate protein remaining % ≤100%)”. The “CK1α substrate protein remaining %” value in assay [5] is “B (80%< substrate protein remaining % ≤100%)”. The “GSPT1 substrate protein remaining %” value in assay [6] was “A (0% ≤ substrate protein remaining % ≤80%)”.
Regarding `O=C1CCN(N2C(=O)c3ccc(CN4CC=C(c5c[nH]c6ncccc56)CC4)cc3C2=O)C(=O)N1` [GT-05181, 5-((4-(1H-pyrrolo[2,3-b]pyridin-3-yl)-3,6-dihydropyridin-1(2H)-yl)methyl)-2-(2,4-dioxotetrahydropyrimidin-1(2H)-yl)isoindoline-1,3-dione], in assay [1], the “WEE1 substrate protein remaining %” value is listed as “A (0% ≤ substrate protein remaining % ≤80%)”. Further, the “IKZF1 substrate protein remaining %” value in assay [2] is given as “B (80%< substrate protein remaining % ≤100%)”. The “IKZF2 substrate protein remaining %” value in assay [3] is reported as “B (80%< substrate protein remaining % ≤100%)”. Moreover, in assay [4], the “IKZF3 substrate protein remaining %” value is reported as “B (80%< substrate protein remaining % ≤100%)”. Further, the “CK1α substrate protein remaining %” value in assay [5] is “B (80%< substrate protein remaining % ≤100%)”. Moreover, the “GSPT1 substrate protein remaining %” value in assay [6] is given as “B (80%< substrate protein remaining % ≤100%)”.
As for `O=C1CCN(N2C(=O)c3ccc(CN4CCN(c5cccc(Br)c5)CC4)cc3C2=O)C(=O)N1` [GT-06722, 5-((4-(3-bromophenyl)piperazin-1-yl)methyl)-2-(2,4-dioxotetrahydropyrimidin-1(2H)-yl)isoindoline-1,3-dione], in assay [1], the “WEE1 substrate protein remaining %” value is on record as “A (0% ≤ substrate protein remaining % ≤80%)”. Further, in assay [2], the “IKZF1 substrate protein remaining %” value is on record as “A (0% ≤ substrate protein remaining % ≤80%)”. Besides, the “IKZF2 substrate protein remaining %” value in assay [3] was “B (80%< substrate protein remaining % ≤100%)”. The “IKZF3 substrate protein remaining %” value in assay [4] was “A (0% ≤ substrate protein remaining % ≤80%)”. For the same compound, in assay [5], the “CK1α substrate protein remaining %” value is reported as “A (0% ≤ substrate protein remaining % ≤80%)”. In assay [6], the “GSPT1 substrate protein remaining %” value was “B (80%< substrate protein remaining % ≤100%)”.
As for `O=C1CCN(N2Cc3cc(CN4CCC(c5cccc6c(F)cccc56)CC4)ccc3C2=O)C(=O)N1` [GT-07589, 1-(5-((4-(5-fluoronaphthalen-1-yl)piperidin-1-yl)methyl)-1-oxoisoindolin-2-yl)dihydropyrimidine-2,4(1H,3H)-dione], the “WEE1 substrate protein remaining %” value in assay [1] is given as “B (80%< substrate protein remaining % ≤100%)”. The “IKZF1 substrate protein remaining %” value in assay [2] is recorded as “B (80%< substrate protein remaining % ≤100%)”. Moreover, in assay [3], the “IKZF2 substrate protein remaining %” value is “B (80%< substrate protein remaining % ≤100%)”. The “IKZF3 substrate protein remaining %” value in assay [4] is reported as “B (80%< substrate protein remaining % ≤100%)”. Moreover, the “CK1α substrate protein remaining %” value in assay [5] is reported as “B (80%< substrate protein remaining % ≤100%)”. Besides, in assay [6], the “GSPT1 substrate protein remaining %” value is given as “A (0% ≤ substrate protein remaining % ≤80%)”.
For the compound `Cc1ccc(Cl)cc1N1CCN(Cc2ccc3c(c2)CN(N2CCC(=O)NC2=O)C3=O)CC1` [GT-06883, 1-(5-((4-(5-chloro-2-methylphenyl)piperazin-1-yl)methyl)-1-oxoisoindolin-2-yl)dihydropyrimidine-2,4(1H,3H)-dione], the “WEE1 substrate protein remaining %” value in assay [1] is listed as “A (0% ≤ substrate protein remaining % ≤80%)”. In assay [2], the “IKZF1 substrate protein remaining %” value was “A (0% ≤ substrate protein remaining % ≤80%)”. Besides, the “IKZF2 substrate protein remaining %” value in assay [3] is “B (80%< substrate protein remaining % ≤100%)”. The “IKZF3 substrate protein remaining %” value in assay [4] was “B (80%< substrate protein remaining % ≤100%)”. Further, in assay [5], the “CK1α substrate protein remaining %” value is listed as “B (80%< substrate protein remaining % ≤100%)”. Further, the “GSPT1 substrate protein remaining %” value in assay [6] is “A (0% ≤ substrate protein remaining % ≤80%)”.
As for `O=C1CCN(N2C(=O)c3ccc(CN4CCn5c(nnc5C(F)(F)F)C4)cc3C2=O)C(=O)N1` [GT-05253, 2-(2,4-dioxotetrahydropyrimidin-1(2H)-yl)-5-((3-(trifluoromethyl)-5,6-dihydro-[1,2,4]triazolo[4,3-a]pyrazin-7 (8H)-yl)methyl)isoindoline-1,3-dione], the “WEE1 substrate protein remaining %” value in assay [1] is on record as “B (80%< substrate protein remaining % ≤100%)”. The “IKZF1 substrate protein remaining %” value in assay [2] is listed as “B (80%< substrate protein remaining % ≤100%)”. For the same compound, the “IKZF2 substrate protein remaining %” value in assay [3] is on record as “B (80%< substrate protein remaining % ≤100%)”. In addition, the “IKZF3 substrate protein remaining %” value in assay [4] is given as “B (80%< substrate protein remaining % ≤100%)”. Further, the “CK1α substrate protein remaining %” value in assay [5] is given as “B (80%< substrate protein remaining % ≤100%)”. Also, in assay [6], the “GSPT1 substrate protein remaining %” value was “A (0% ≤ substrate protein remaining % ≤80%)”.
Regarding `Cc1ccc(N2CCN(Cc3ccc4c(c3)CN(N3CCC(=O)NC3=O)C4=O)CC2)c(C)c1` [GT-06882, 1-(5-((4-(2,4-dimethylphenyl)piperazin-1-yl)methyl)-1-oxoisoindolin-2-yl)dihydropyrimidine-2,4(1H,3H)-dione], in assay [1], the “WEE1 substrate protein remaining %” value is listed as “A (0% ≤ substrate protein remaining % ≤80%)”. The “IKZF1 substrate protein remaining %” value in assay [2] is given as “A (0% ≤ substrate protein remaining % ≤80%)”. For the same compound, the “IKZF2 substrate protein remaining %” value in assay [3] is reported as “B (80%< substrate protein remaining % ≤100%)”. Further, the “IKZF3 substrate protein remaining %” value in assay [4] is “B (80%< substrate protein remaining % ≤100%)”. Further, in assay [5], the “CK1α substrate protein remaining %” value is “B (80%< substrate protein remaining % ≤100%)”. Besides, the “GSPT1 substrate protein remaining %” value in assay [6] is listed as “A (0% ≤ substrate protein remaining % ≤80%)”.
Regarding `O=C1CCN(N2C(=O)c3ccc(CN4CCC(c5ccco5)CC4)cc3C2=O)C(=O)N1` [GT-05315, 2-(2,4-dioxotetrahydropyrimidin-1(2H)-yl)-5-((4-(furan-2-yl)piperidin-1-yl)methyl)isoindoline-1,3-dione], the “WEE1 substrate protein remaining %” value in assay [1] is listed as “B (80%< substrate protein remaining % ≤100%)”. Besides, in assay [2], the “IKZF1 substrate protein remaining %” value is reported as “B (80%< substrate protein remaining % ≤100%)”. Moreover, the “IKZF2 substrate protein remaining %” value in assay [3] is given as “B (80%< substrate protein remaining % ≤100%)”. For the same compound, the “IKZF3 substrate protein remaining %” value in assay [4] is “B (80%< substrate protein remaining % ≤100%)”. Also, the “CK1α substrate protein remaining %” value in assay [5] is recorded as “B (80%< substrate protein remaining % ≤100%)”. The “GSPT1 substrate protein remaining %” value in assay [6] is on record as “A (0% ≤ substrate protein remaining % ≤80%)”.
